# Measured values as given in BindingDB's records for doi:10.1016/j.bmc.2019.07.003 (Tokyo Medical and Dental University, 2019).
# Assay: Transactivation of VDR in human Macrophage-like cell assessed as cell differentiation measured after 4 days by NBT dye-based assay
structure (smiles),measurement,value
C[C@H](CCC(=O)O)[C@H]1CC[C@H]2[C@@H]3CC[C@@H]4C[C@H](OS(C)(=O)=O)CC[C@]4(C)[C@H]3CC[C@]12C,EC50,1200 nM
